Data on two molecules can be found in patent publication US4834964A, “Use of charged nitroxides as NMR image enhancing agents for CSF” (M.R.I., Inc., priority 1986, dated 1989).

Series [1] in a line: Stability/pharmacokinetics of nitroxide in the CSF of dogs (nitroxide concentration). The format is in vivo. The settings on record: 20 umol/animal, dog, average of 4 studies. As for the experimental part: (§1) Dogs (data is the average of 4 independent studies) under general anesthetic were injected with 2 ml of a 10 mM stock solution of 4-(N,N,N-dimethylethylamino)-2,2,6,6-tetramethylpiperidin-oxyl iodide in saline (0.9%) into the spinal cavity (3 cm below the head). At defined times, samples of CSF were removed from a catheter inserted at the point of injection. The samples were analyzed for nitroxide concentration and relaxation times. (A separate experiment determined that charged nitroxides are not bioreduced by CSF fluid. Therefore, the diminution in nitroxide concentration is attributed to active transport from the spinal cavity.) The data obtained are set forth in the table below.

A short description of series [2]: T1 relaxation time of CSF after injection of nitroxide into spinal cavity of dogs. It counts as in vivo. Also noted: T1 RELAXATION TIME: unit not given here. The settings on record: dog; for T1 RELAXATION TIME: average of 4 studies, time 0: 3.11. As for the experimental part: as §1
Series [3] can be described thus: NMR image enhancement with nitroxide (cranium and spinal column). It counts as in vivo. The conditions noted are these: dog, 1.5 Tesla whole-body imager; 7, 21, 40, 60 and 90 min post injection, versus control images. From the text: An anesthetized dog (ca. 15 kg) as described in Example 1, in a prone position with front and hind legs extended and the head supported by a pillow in the upright position, was inserted into a small animal coil of a whole-body NMR imager (General Electric 1.5 Teslar instrument). Images of two cross-sections of the cranium and four cross-sections of the spinal column at various points below the point of injection were obtained as controls. The dog was removed from the instrument, injected with the NMR image-enhancing agent as described in Example 1 and the above-described images again obtained at 7, 21, 40, 60 and 90 minutes post injection. […] Because the loss in image enhancement is due to CSF turnover rather than decomposition of the nitroxide or passive diffusion thereof across the spinal cord, this procedure can be employed to study turnover of the CSF.

The conditions of series [4]: U.S. Pat. No. 3,702,831; cited from earlier work.
Setting [5] is: 5 min after 2 ml of 10 mM into spinal cavity.
Setting [6] is: 10 min after 2 ml of 10 mM into spinal cavity.
Where [7] appears, read: 20 min after 2 ml of 10 mM into spinal cavity.
The mark [8] stands for this setting: 30 min after 2 ml of 10 mM into spinal cavity.
The mark [9] stands for this setting: 45 min after 2 ml of 10 mM into spinal cavity.
[10] abbreviates: 60 min after 2 ml of 10 mM into spinal cavity.
Setting [11] is: 75 min after 2 ml of 10 mM into spinal cavity.
[12] abbreviates: 90 min after 2 ml of 10 mM into spinal cavity.
Where [13] appears, read: 150 min after 2 ml of 10 mM into spinal cavity.

In series [1] (setting [5]), `CC[N+](C)(C)C1CC(C)(C)N([O])C(C)(C)C1` [4-(N,N,N-dimethylethylamino)-2,2,6,6-tetramethylpiperidinoxyl iodide] displayed a concentration at 5 min of 3800 µM. The same molecule had a concentration at 10 min in series [1] (setting [6]) of 3300 µM. Moreover, the concentration at 20 min in series [1] (setting [7]) is 2200 µM. For the same molecule, in series [1] (setting [8]), the concentration at 0.5 h worked out at 2000 µM. Also, the concentration at 0.75 h in series [1] (setting [9]) was 1000 µM. In series [1] (setting [10]), this molecule showed a concentration at 1 h of 720 µM. Besides, in series [1] (setting [11]), the concentration at 1.25 h amounted to 450 µM. Besides, in series [1] (setting [12]), the concentration at 1.5 h was 220 µM. The concentration at 1.75 h in series [1] (105 min after 2 ml of 10 mM into spinal cavity) worked out at 70 µM. For the same molecule, the concentration at 2.5 h in series [1] (setting [13]) is 30 µM. Moreover, the “T1 RELAXATION TIME” value in series [2] (setting [5]) stood at 0.904; in series [2] (setting [6]), 1.147; in series [2] (setting [7]), 1.751; in series [2] (setting [8]), 1.942; in series [2] (setting [9]), 2.439; in series [2] (setting [10]), 2.533. Further, the “T1 RELAXATION TIME” value came out at 2.546 in series [2] (setting [11]), 2.782 in series [2] (setting [12]) and 2.958 in series [2] (setting [13]). In series [2] (150 min after injection (footnote)), the “T1 relaxation time, sufficiency for enhanced NMR image” value was “insufficient to obtain an enhanced NMR image”. In addition, the “NMR image of CSF in spinal column” value in series [3] is “the CSF fluid in the spinal column was clearly imaged and produced a clear anatomical profile of the spinal column in each image, including the cranial sections and all of the 90 minute images”.
Turning to `CC(C)(C)N([O])C(C)(C)C` [di-tert-butylnitroxide], in series [4], the in vivo elimination entry is recorded as “rapidly eliminated in vivo”.
